In patent publication US20210353579A1, “HIGH PENETRATION COMPOSITIONS AND USES THEREOF” (Techfields Pharma Co., Ltd., priority 2006, published 2021):
Values after ≈ are worked out from the molar mass of the structure shown.

Assays:
[1] = test system: rats; assay: Antipyretic activity, E. coli suspension as pyrogen; format: in vivo; conditions: in °C (unit assumed)
Procedure: Rats are administered with sterilized E. coli suspension as a pyrogen. Each group of rats are administered with a prodrug compounds or parent compounds at a dosage specified below. The prodrug compounds are administered either orally or transdermally. The parent compounds are administered orally.

[2] = test system: mice; assay: Analgesic activity, acetic acid writhing; format: in vivo
Procedure: The prodrug compounds are administered either transdermally or orally. The parent compounds are administered orally. The number of writhing that occurred when mice are administered the acetic acid solution are counted, and the rate of inhibition based on the control group which was not pretreated with any test compounds is calculated. […] The A group is the control group.

[3] = Plasma levels after transdermal administration to hairless mice; format: in vivo; conditions: for Peak plasma concentration of parent compound after prodrug compound / t, time to peak plasma level of parent compound after prodrug compound: mouse, in vivo; for t, time to peak plasma level after parent compound: parent compound administered (time when taken orally); for Peak plasma concentration after parent compound: parent compound administered, hairless mice
Procedure: Tested compounds (20% solution or suspension in 1 mL isopropanol) are administered transdermally to the skin of intact hairless mice. The plasma levels of the parent compounds are determined by HPLC.

[4] = test system: human skin tissue; conditions: pH 7.4; for In vitro penetration rate (apparent flux), parent compounds: human, 20 %
[5] = Solubility in water / aqueous solubility of HPPs and parent drugs; conditions: for solubility: water; for Solubility in water: product as prepared in Example 1
[6] = 50 mg/kg transdermally, 60 minutes before acetic acid
[7] = 100 mg/kg transdermally, 30 min before acetic acid

Row | Molecule | Peak plasma concentration of parent compound after prodrug compound [3] | In vitro penetration rate (apparent flux), prodrug compounds [4] | solubility [5] | body temperature, t = 0 min ([1]; 100 mg/kg transdermally) | body temperature, t = 90 min ([1]; 100 mg/kg transdermally) | body temperature, t = 180 min ([1]; 100 mg/kg transdermally) | body temperature, t = 270 min ([1]; 100 mg/kg transdermally) | % (rate of writhing inhibition) [2, 7] | No. of Writhing [2, 7] | t, time to peak plasma level of parent compound after prodrug compound [3] | also measured
1 | 8-chloro-(4-N,N-dimethylaminobutyryloxy-pyridine-2-ylamino-methylidene)-3-methyl-2,2-dioxo-2λ^6,7-dithia-3-azabicyclo[4,3,0]nona-8,10-dien-5-one.HCl | – | – | – | – | – | – | – | – | – | – | body temperature, t = 0 min ([1]; 25 mg/kg transdermally): 37.53 ± 0.05; body temperature, t = 90 min ([1]; 25 mg/kg transdermally): 36.57 ± 0.05; body temperature, t = 180 min ([1]; 25 mg/kg transdermally): 36.52 ± 0.07; body temperature, t = 270 min ([1]; 25 mg/kg transdermally): 36.51 ± 0.06; % (rate of writhing inhibition) [2, 6]: 50%; No. of Writhing [2, 6]: 17.5
2 | CN(C)CCCC(=O)OC1=C(C(=O)Nc2ccccn2)N(C)S(=O)(=O)c2ccsc21.Cl [4-N,N-dimethylaminobutyryloxy-2-methyl-N-2-pyridinyl-2H-thieno[2,3-e]-1,2-thiazine-3-carboxamide 1,1-dioxide.HCl] | 20 mg/L | 1800 μg/cm^2/h | – | – | – | – | – | – | – | – | body temperature, t = 0 min ([1]; 25 mg/kg transdermally): 37.54 ± 0.06; body temperature, t = 90 min ([1]; 25 mg/kg transdermally): 36.61 ± 0.06; body temperature, t = 180 min ([1]; 25 mg/kg transdermally): 36.58 ± 0.08; body temperature, t = 270 min ([1]; 25 mg/kg transdermally): 36.55 ± 0.05; % (rate of writhing inhibition) [2, 6]: 53%; No. of Writhing [2, 6]: 16.9
3 | C=CCOc1ccc(CC(=O)O)cc1Cl [Alclofenac, alclofenac, reference compound] | – | – | 100 µg/mL (≈ 0.441 mM) | – | – | – | – | – | – | – | t, time to peak plasma level after parent compound [3]: 1 to 2 h; Peak plasma concentration after parent compound [3]: 0.1 mg/L; In vitro penetration rate (apparent flux), parent compounds [4]: 10 μg/cm^2/h
4 | O=C(O)COc1nn(Cc2ccccc2)c2ccccc12 [Bendazac, bendazac, reference compound] | – | – | 100 µg/mL (≈ 0.354 mM) | – | – | – | – | – | – | – | t, time to peak plasma level after parent compound [3]: 1 to 2 h; Peak plasma concentration after parent compound [3]: 0.1 mg/L
5 | Cc1ccc2c(c1)CC(=O)c1cc(C(C)C(=O)O)ccc1O2 (stereo not shown) [Bermoprofen, bermoprofen, reference compound] | – | – | 100 µg/mL (≈ 0.337 mM) | – | – | – | – | – | – | – | t, time to peak plasma level after parent compound [3]: 2 to 4 h; Peak plasma concentration after parent compound [3]: 10 mg/L; In vitro penetration rate (apparent flux), parent compounds [4]: 40 μg/cm^2/h
6 | O=C(O)CCC(=O)c1ccc(-c2ccccc2)cc1 [Fenbufen, fenbufen, reference compound] | – | – | – | – | – | – | – | – | – | – | t, time to peak plasma level after parent compound [3]: 2 to 4 h; Peak plasma concentration after parent compound [3]: 10 mg/L; In vitro penetration rate (apparent flux), parent compounds [4]: 40 μg/cm^2/h
7 | Cc1c(Nc2ncccc2C(=O)O)cccc1C(F)(F)F [Flunixin, flunixin, reference compound] | – | – | < 100 µg/mL | – | – | – | – | – | – | – | t, time to peak plasma level after parent compound [3]: 2 to 4 h; Peak plasma concentration after parent compound [3]: 0.1 mg/L; In vitro penetration rate (apparent flux), parent compounds [4]: 10 μg/cm^2/h
8 | CC(C(=O)O)c1ccc(-c2ccccc2)c(F)c1 (stereo not shown) [Flurbiprofen, flurbiprofen, reference compound] | – | – | 200 µg/mL (≈ 0.819 mM) | – | – | – | – | – | – | – | t, time to peak plasma level after parent compound [3]: 2 to 4 h; Peak plasma concentration after parent compound [3]: 10 mg/L; In vitro penetration rate (apparent flux), parent compounds [4]: 30 μg/cm^2/h
9 | CC(C)Cc1ccc(CC(=O)O)cc1 [Ibufenac] | – | – | 100 µg/mL (≈ 0.52 mM) | – | – | – | – | – | – | – | –
10 | CC(=O)O.CCN(CC)CCNC(=O)CCc1nc(-c2ccccc2)c(-c2ccccc2)o1 [N-diethylaminoethyl 4,5-Diphenyl-2-oxazole propionamide.AcOH] | – | – | – | – | – | – | – | – | – | – | Solubility in water [5]: 400000 µg/mL
11 | CC(=O)O.CN(C)CCNC(=O)Cc1ccccc1Nc1c(Cl)cccc1Cl [N-dimethylaminoethyl 2[(2,6-dichlorophenyl)amino] benzene acetamide.AcOH] | – | – | – | – | – | – | – | – | – | – | Solubility in water [5]: 450000 µg/mL
12 | CC(=O)O.CN(C)CCSC(=O)Cc1ccccc1Nc1c(Cl)cccc1Cl [S-dimethylaminoethyl 2[(2,6-dichlorophenyl)amino] benzene acetate.AcOH] | – | – | – | – | – | – | – | – | – | – | Solubility in water [5]: 410000 µg/mL
13 | CN1C(C(=O)Nc2ccccn2)=C(O)c2sccc2S1(=O)=O [Tenoxicam, tenoxicam, reference compound] | – | – | – | – | – | – | – | – | – | – | t, time to peak plasma level after parent compound [3]: 2 to 4 h; Peak plasma concentration after parent compound [3]: 0.1 mg/L; In vitro penetration rate (apparent flux), parent compounds [4]: <1 μg/cm^2/h
14 | CC(=O)O.CCN(CC)CCOC(=O)C(C)c1ccc(-c2ccccc2)c(F)c1 (stereo not shown) [diethylaminoethyl 2-(2-fluoro-4-biphenylyl)propionate.AcOH] | 2000 mg/L | 3500 μg/cm^2/h | – | 37.29 ± 0.07 | 36.82 ± 0.06 | 36.70 ± 0.05 | 36.67 ± 0.08 | 55% | 15.6 | 50 min | –
15 | CC(=O)O.CCN(CC)CCOC(=O)C(C)c1ccc(CC2CCCC2=O)cc1 (stereo not shown) [diethylaminoethyl 2-[4-(2-oxocyclopentyl-methyl)phenyl]propionate.AcOH] | 2000 mg/L | 3400 μg/cm^2/h | – | 37.25 ± 0.06 | 36.71 ± 0.05 | 36.65 ± 0.08 | 36.64 ± 0.07 | 55% | 15.7 | 50 min | –
16 | CCN(CC)CCOC(=O)c1ccccc1Nc1cccc(Cl)c1C [diethylaminoethyl 2-[(3-chloro-2-methylphenyl)amino]benzoate] | – | – | > 400000 µg/mL | – | – | – | – | – | – | – | –
17 | CC(=O)O.CCN(CC)CCOC(=O)CCC(=O)c1ccc(-c2ccccc2)cc1 [diethylaminoethyl 3-(4-biphenylylcarbonyl)propionate.AcOH] | 2000 mg/L | 3600 μg/cm^2/h | – | 37.23 ± 0.06 | 36.81 ± 0.05 | 36.65 ± 0.08 | 36.61 ± 0.07 | 59% | 14.2 | 50 min | –
18 | CC(=O)O.CCN(CC)CCOC(=O)C(C)c1ccc(N2CC=CC2)c(Cl)c1 (stereo not drawn) [diethylaminoethyl 3-chloro-4-(2,5-dihydro-1H-pyrrol-1-yl)-α-methyl benzeneacetate.AcOH] | 2000 mg/L | 3500 μg/cm^2/h | – | 37.27 ± 0.06 | 36.68 ± 0.05 | 36.62 ± 0.08 | 36.58 ± 0.07 | 60% | 14.0 | 50 min | –
19 | CC(=O)O.CCN(CC)CCOC(=O)CCc1nc(-c2ccccc2)c(-c2ccccc2)o1 [diethylaminoethyl 4,5-Diphenyl-2-oxazole propionate.AcOH] | 2000 mg/L | 4000 μg/cm^2/h | – | 37.24 ± 0.07 | 36.82 ± 0.06 | 36.70 ± 0.05 | 36.67 ± 0.08 | 55% | 15.7 | 50 min | –
20 | CC(=O)O.CCN(CC)CCOC(=O)CC(O)c1ccc(-c2ccc(Cl)cc2)o1 (stereo not drawn) [diethylaminoethyl 5-(4-chlorophenyl)-beta-hydroxy-2-furanpropionate.AcOH] | 2000 mg/L | 4100 μg/cm^2/h | – | 37.29 ± 0.07 | 36.82 ± 0.06 | 36.60 ± 0.05 | 36.67 ± 0.08 | 55% | 15.6 | 50 min | –
21 | CC(=O)O.CCN(CC)CCOC(=O)C1CCn2c(C(=O)c3ccccc3)ccc21 (stereo not shown) [diethylaminoethyl 5-benzoyl-2,3-dihydro-1H-pyrrolizine-1-carboxylate.AcOH] | 2000 mg/L | 3800 μg/cm^2/h | – | 37.22 ± 0.06 | 36.65 ± 0.06 | 36.58 ± 0.08 | 36.51 ± 0.07 | 54% | 16.1 | 50 min | –
22 | CC(=O)O.CCN(CC)CCOC(=O)C(C)c1ccc(C(=O)c2ccccc2)s1 (stereo not drawn) [diethylaminoethyl 5-benzoyl-α-methyl-2-thiopheneacetate.AcOH] | 2000 mg/L | 4200 μg/cm^2/h | – | 37.26 ± 0.06 | 36.65 ± 0.06 | 36.58 ± 0.08 | 36.36 ± 0.07 | 62% | 13.2 | 50 min | –
23 | CC(=O)O.CCN(CC)CCOC(=O)Cc1ccc(CC(C)C)cc1 [diethylaminoethyl p-isobutylphenylacetate.AcOH] | – | – | – | – | – | – | – | – | – | – | Solubility of HPP ([5]; medium not given): >250000 µg/mL
24 | Cc1c(Cl)cccc1Nc1ccccc1C(=O)O [tolfenamic acid] | – | – | < 100 µg/mL | – | – | – | – | – | – | – | –
